Source: PMC11488110 (Theranostics, 2024)
Entries after “also recorded” stand apart in the source; their conditions may differ.

Columns and labels:
[1] = biological target: T1, hPPARδ (Homo sapiens, UniProt Q03181); assay: In vitro co-transfection (PPRE-luciferase) assay in CV-1 cells, hPPARδ; format: cell-based
T1 construct: expressed in transfected cells; host or cells: CV-1 monkey kidney cells
T1 sequence (Q03181 1-441): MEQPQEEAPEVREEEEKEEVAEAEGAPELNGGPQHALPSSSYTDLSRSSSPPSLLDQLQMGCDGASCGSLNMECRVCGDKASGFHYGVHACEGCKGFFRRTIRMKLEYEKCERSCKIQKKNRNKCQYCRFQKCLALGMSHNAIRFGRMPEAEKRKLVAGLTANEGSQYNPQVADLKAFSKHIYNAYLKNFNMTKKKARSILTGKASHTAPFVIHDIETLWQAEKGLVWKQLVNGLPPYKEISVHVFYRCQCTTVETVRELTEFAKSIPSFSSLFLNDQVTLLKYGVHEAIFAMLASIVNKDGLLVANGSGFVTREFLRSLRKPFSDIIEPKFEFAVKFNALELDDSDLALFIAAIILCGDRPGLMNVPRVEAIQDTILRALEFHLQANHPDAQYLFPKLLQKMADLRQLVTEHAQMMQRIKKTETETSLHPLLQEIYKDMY

[2] = tested on: PPARδ target genes (Pdk4, Angptl4, Cd36); assay: qRT-PCR of PPARδ target genes in BV-2 microglia and mouse cortex; format: cell-based; details: in vitro (BV-2, 24 h) and in vivo (cortex)
Description: Total RNA was isolated using TRIzol® (Invitrogen). Genomic DNA was removed and complementary DNA was synthesized from 500 ng total RNA using the iScript™ gDNA Clear cDNA Synthesis Kit (Bio-Rad). Real-time PCR was performed using the CFX Connect™ Real-Time PCR Detection System (Bio-Rad) using iQ™ SYBR® Green Supermix (Bio-Rad). The hypoxanthine phosphoribosyltransferase (Hprt) was used to normalize mRNA expression levels. Primer sequences used are described in Table S6.
Figure S8. 5a induces transcriptional activation of PPAR δ targ et genes in vitro an d in vivo.
(A-B) qRT-PCR anal ysi s of relative mRNA expression of Ppard and its downstream t arget genes, including Pdk4 , Angptl4, and Cd36. (A) BV-2 microglia were treated with 5a or […]
treated control (one -wa y ANOVA with Dunnett’s test). (B) Cortical homogenates from 10 - month- old WT and APP/PS1 mice treated with vehicle or 5a (30 m g/kg/day for 10 da ys, p.o ) were used for anal ysis (n = 3–4 mice per group). *P < 0.05 and ****P < 0.0001; n.s., not significant (one-wa y ANOVA with Tukey’s test). Hprt mRNA levels were used to normalize the expression of each gene.Data are p resented as mean ± SEM. GW: GW501516.
(1 picture or pasted object on this page, not shown here)

[3] = tested on: primary mouse astrocytes; assay: Cytotoxicity assay (EZ-Cytox) in primary mouse astrocytes; format: cell-based; details: up to 30 μM, 24 h
[4] = tested on: Salmonella typhimurium TA100; assay: Ames MPF mutagenicity assay, TA100; format: cell-based
Description: An Ames microplate format (MPF) 98/100 mutagenesis assay kit (Xenometrix) was used to test mutagenic activity. The TA98 / TA100 Salmonella strain was inoculated into the bacterial culture medium and cultured overnight. The Salmonella test strain was then exposed to six concentrations of the test compound (plus positive and negative controls). Samples were prepared in 96-well plates in sterile DMSO. The cultured bacteria, test compound, and S9 mixture were incubated for 90 min at 37 °C in a shaking incubator. The mixture was then treated with an indicator medium and dispensed into 384-well plates. The plates were incubated at 37 °C for 48 h. The number of wells containing revertant colonies was counted for each dose.
Ta b l e S4 . Tw o -strain Ames mutagenic assess ment of 5a.
Straina Activity in the absence (-) of S9b Activity in the presence (+) of S9b TA 9 8 Negative (-) Negative (-)
TA 1 0 0 Negative (-) Negative (-) aSalmonella typhimurium strains TA98 (hi s D3052 mutation) and TA100 (hisG46 mutation) were used to detect frameshift mutations and base- pair substitution mutations, respectively. bAroclor 1254- induced rat liver S9 fraction for exogenous metabolic activation.

[5] = tested on: BV-2 microglial cells; assay: HO-1 expression and intracellular ROS in BV-2 microglia; format: cell-based, mouse
Description: Total proteins were extracted from cells or mouse brain tissues using radioimmunoprecipitation assay (RIPA) buffer (Sigma-Aldrich) containing a protease and phosphatase inhibitor cocktail (Roche Diagnostics). After 30 min of incubation with RIPA buffer on ice, lysates were centrifuged at 15800 g and 4 °C for 20 min and supernatants were collected. Protein concentrations were determined using Pierce® BCA Protein Assay Kit (Thermo Fisher Scientific). Protein samples (10 μg) were separated on 10% SDS-PAGE gels and transferred to polyvinylidene fluoride (PVDF) membranes (Millipore). The membranes were blocked in 5% skim milk (Millipore) in TBST (10 mM Tris-HCl, pH 7.5, 150 mM NaCl, and 0.1% Tween® 20) for 1 h at room temperature and incubated overnight at 4 °C with primary antibodies. […] The western blot bands were analyzed using ImageJ software (NIH) and β-Actin or glyceraldehyde 3-phosphate dehydrogenase (GAPDH) were used as a loading control. […]
Intracellular ROS accumulation was monitored using the cell-permeable fluorescent probe DCFH-DA (Sigma-Aldrich). […] After washing with phosphate-buffered saline (PBS), cells were imaged with an ImageXpress Pico (Molecular Devices) and fluorescence intensity was quantified using the ImageJ software (NIH).

In the case of Cc1cc(SCc2[se]c(-c3ccc(C(F)(F)F)cc3)nc2C)ccc1OCC(=O)O [Compound 5a, {2-Methyl-4-[4-methyl-2-(4-trifluoromethyl-phenyl)-selenazol-5-yl-methylsulfanyl]-phenoxy}-acetic acid], the EC50 ([1]; co-transfection assay, CV-1 cells, 24 h, read-out: Potency (EC50) hPPARδ) is reported as 0.7 nM, the “Selectivity index hPPARα/hPPARδ” value ([1]; ratio EC50(hPPARα)/EC50(hPPARδ)) is reported as >14000 and the “Selectivity index hPPARγ/hPPARδ” value ([1]; ratio EC50(hPPARγ)/EC50(hPPARδ)) is reported as >14000. For the same compound, the “Transcription of PPARδ target genes Pdk4, Angptl4, Cd36” value [2] was “induced transcriptional activation”, the “Cytotoxicity in primary astrocytes” value [3] was “no cytotoxicity” and the “Ames mutagenic activity in the presence (+) of S9” value ([4]; TA100, with rat liver S9) was “Negative (-); also recorded: lacks mutagenicity”. For the same compound, the “Ames mutagenic activity in the absence (-) of S9” value ([4]; TA100, without S9) was “Negative (-); also recorded: lacks mutagenicity”, the “Intracellular ROS production (DCFH-DA)” value ([5]; BV-2, 5 μM 24 h, H2O2 200 μM 20 min) was “suppressed ROS production” and the HO-1 expression ([5]; BV-2, 48 h) was “increased the expression of HO-1”.
